Test [1] concerns Green Peach Aphid (Myzus persicae) (GPA) (MYZUPE). In words: Green peach aphid (GPA) foliar spray bioassay on cabbage seedlings. Format: in vivo. The note with it: 72 h, 200 ppm foliar spray on cabbage seedlings, graded after three days, read-out: GPA % Control (or Mortality) rating. As to the method: Bioassay for GPA was prepared as follows: Cabbage seedlings grown in 3-inch pots, with 2-3 small (3-5 cm) true leaves, were used as test substrate. The seedlings were infested with 20-50 GPA (adult and nymph stages) one day prior to chemical application. Four pots with individual seedlings were used for each treatment. The tested compounds (2 mg) were dissolved in 2 mL of acetone/methanol (1:1) solvent to form stock solutions of 1000 ppm tested compound. The stock solutions were diluted five times with an aqueous solution containing 0.025% TWEEN® 20 surfactant, which is polyoxyethylene (20) sorbitan monolaurate, to obtain the solution at 200 ppm tested compound. A hand-held aspirator-type sprayer was used for spraying the solution to both sides of cabbage leaves until runoff. The control plants (solvent check) were sprayed with the diluent only containing 20% by volume of acetone/methanol (1:1) solvent. Treated plants were held in a holding room for three days at approximately 25° C. and ambient relative humidity (RH) prior to grading. Evaluation was conducted by counting the number of live aphids per plant under a microscope. Percent control was measured by using Abbott's correction formula (W. S. Abbott, “A Method of Computing the Effectiveness of an Insecticide,” J. Econ. Entomol. 18 (1925), pp. 265-267) as follows. Corrected % Control=100*(X−Y)/X
X=No. of live aphids on solvent check plants and
Y=No. of live aphids on treated plants
(§1) The comparative compounds were tested for insecticidal activities against GPA and WF pests using the same test protocols described above for the disclosed compounds.

Test [2] deals with Sweetpotato Whitefly-crawler (Bemisia tabaci) (WF) (BEMITA). In words: Sweetpotato whitefly-crawler (WF) foliar spray assay on cotton plants. Type of test: in vivo. The conditions noted are these: 216 h, 200 ppm foliar spray on cotton plants, graded after 9 days, read-out: WF % Control (or Mortality) rating. As to the method: Foliar spray assay for WF was prepared as follows: Cotton plants (Gossypium hirsutum) grown in 3-inch pots, with 1 small (4-5 cm) true leaf, were used as test substrate. The plants were infested with 200-400 whitefly eggs 4-5 days prior to chemical application. Four pots with individual plants were used for each treatment. Tested compounds (2 mg) were dissolved in 1 mL of acetone solvent, forming stock solutions of 2000 ppm tested compound.
The stock solutions were diluted ten times with 0.025% TWEEN® 20 surfactant in H2O (diluents) to obtain the solution at 200 ppm tested compound. A hand-held aspirator-type sprayer was used for spraying the solution to both sides of cotton leaves until runoff. The control plants (solvent check) were sprayed with the diluent only containing 10% by volume of acetone solvent. Treated plants were held in a holding room for 9 days at approximately 25° C. and ambient relative humidity (RH) prior to grading. Evaluation was conducted by counting the number of live 3-4 nymph stage per plant under a microscope. Percent control was measured by using Abbott's correction formula (W. S. Abbott, “A Method of Computing the Effectiveness of an Insecticide,” J. Econ. Entomol. 18 (1925), pp. 265-267) as follows. Corrected % Control=100*(X−Y)/X
X=No. of live nymphs on solvent check plants and
Y=No. of live nymphs on treated plants.
as §1

The mark [3] stands for this setting: Abbott-corrected % control, disclosed compounds (TABLE 2).
The mark [4] stands for this setting: same protocol, comparative compounds (TABLE 3).

As a reminder, the mortality is the share of the test organisms that died.

The structures appear in SMILES notation. Read-outs that look alike come from different tables or passages of the source.

Regarding `O=C1c2cn(-c3cccnc3)nc2CCN1CC=NOCc1ccccc1` (racemic) [Compound P27, 2-(4-oxo-2-(pyridin-3-yl)-2,4,6,7-tetrahydro-5H-pyrazolo[4,3-c]pyridin-5-yl)acetaldehyde O-benzyl oxime], the mortality at 200 ppm in test [1] (setting [3]) and in test [2] (setting [3]) was 80 to 100% in each case.
In the case of `O=C1c2cn(-c3cccnc3)nc2CCN1CC(=NOCc1ccccc1)c1ccccc1` (racemic) [Compound P36, 5-(2-((benzyloxy)imino)-2-phenylethyl)-2-(pyridin-3-yl)-2,5,6,7-tetrahydro-4H-pyrazolo[4,3-c]pyridin-4-one], the mortality at 200 ppm in test [1] (setting [3]) was 0 to 80%; in test [2] (setting [3]) it was 80 to 100%.
`CON=CCN1CCc2nn(-c3cccnc3)cc2C1=O` (single isomer, unassigned) [Compound P26, 2-(4-oxo-2-(pyridin-3-yl)-2,4,6,7-tetrahydro-5H-pyrazolo[4,3-c]pyridin-5-yl)acetaldehyde O-methyl oxime]: the mortality at 200 ppm in test [1] (setting [3]) lay within 80 to 100%.
Consider `CON=C(C)CN1CCc2nn(-c3cccnc3)cc2C1=O` (single isomer, unassigned) [Compound P30, 5-(2-(methoxyimino)propyl)-2-(pyridin-3-yl)-2,5,6,7-tetrahydro-4H-pyrazolo[4,3-c]pyridin-4-one], for which the mortality at 200 ppm in test [1] (setting [3]) and in test [2] (setting [3]) was 80 to 100% throughout.
In the case of `CC(CN1CCc2nn(-c3cccnc3)cc2C1=O)=NOCc1ccccc1` (single isomer, unassigned) [Compound P31, 5-(2-((benzyloxy)imino)propyl)-2-(pyridin-3-yl)-2,5,6,7-tetrahydro-4H-pyrazolo[4,3-c]pyridin-4-one], the mortality at 200 ppm in test [1] (setting [3]) and in test [2] (setting [3]) was 80 to 100% throughout.
`CON=C(CN1CCc2nn(-c3cccnc3)cc2C1=O)c1ccccc1` (single isomer, unassigned) [Compound P32, 5-(2-(methoxyimino)-2-phenylethyl)-2-(pyridin-3-yl)-2,5,6,7-tetrahydro-4H-pyrazolo[4,3-c]pyridin-4-one]: the results for the mortality at 200 ppm in test [1] (setting [3]) and in test [2] (setting [3]) were 80 to 100% and 0 to 80%, respectively.
As for `CON=C(CN1CCc2nn(-c3cccnc3)cc2C1=O)c1cccc(C(F)(F)F)c1` (single isomer, unassigned) [Compound P34, 5-(2-(methoxyimino)-2-(3-(trifluoromethyl)phenyl)ethyl)-2-(pyridin-3-yl)-2,5,6,7-tetrahydro-4H-pyrazolo[4,3-c]pyridin-4-one], the mortality at 200 ppm in test [1] (setting [3]) fell in the range of 80 to 100%.
Same read-out and setting: in the case of `CON=C(CN1CCc2nn(-c3cccnc3)cc2C1=O)c1ccc(C(F)(F)F)cc1` (single isomer, unassigned) [Compound P35, 5-(2-(methoxyimino)-2-(4-(trifluoromethyl)phenyl)ethyl)-2-(pyridin-3-yl)-2,5,6,7-tetrahydro-4H-pyrazolo[4,3-c]pyridin-4-one] it was 80 to 100%.
`O=C1c2cn(-c3cccnc3)nc2CCN1CC(=NOCc1ccccc1)c1cccc(C(F)(F)F)c1` (single isomer, unassigned) [Compound P38, 5-(2-((benzyloxy)imino)-2-(3-(trifluoromethyl)phenyl)ethyl)-2-(pyridin-3-yl)-2,5,6,7-tetrahydro-4H-pyrazolo[4,3-c]pyridin-4-one]: the mortality at 200 ppm in test [1] (setting [3]) and in test [2] (setting [3]) was 0 to 80% each time.
As for `O=C1c2cn(-c3cccnc3)nc2CCN1CC(=NOCc1ccccc1)c1ccc(C(F)(F)F)cc1` (single isomer, unassigned) [Compound P39, 5-(2-((benzyloxy)imino)-2-(4-(trifluoromethyl)phenyl)ethyl)-2-(pyridin-3-yl)-2,5,6,7-tetrahydro-4H-pyrazolo[4,3-c]pyridin-4-one], the mortality at 200 ppm in test [1] (setting [3]) and in test [2] (setting [3]) was 0 to 80% each time.
`O=C1c2cn(-c3ccccn3)nc2CCN1c1ccc(C(F)(F)F)cn1` [CE6, 2-(2-Pyridyl)-5-[5-(trifluoromethyl)-2-pyridyl]-6,7-dihydropyrazolo[4,3-c]pyridin-4-one, reference compound]: the mortality at 200 ppm in test [1] (setting [4]) was 0 to 80%; in test [2] (setting [4]), less than 0%.
For the molecule `CON(C)C(=O)CN1CCc2nn(-c3cccnc3)cc2C1=O` [Compound CA3, N-methoxy-N-methyl-2-(4-oxo-2-(pyridin-3-yl)-2,4,6,7-tetrahydro-5H-pyrazolo[4,3-c]pyridin-5-yl)acetamide], the mortality at 200 ppm in test [1] (setting [3]) and in test [2] (setting [3]) was 80 to 100% throughout.
With `CC(=O)CN1CCc2nn(-c3cccnc3)cc2C1=O` [Compound CA4, 5-(2-oxopropyl)-2-(pyridin-3-yl)-2,5,6,7-tetrahydro-4H-pyrazolo[4,3-c]pyridin-4-one], the mortality at 200 ppm in test [1] (setting [3]) is 80 to 100%.
Consider `O=C1NCCc2nn(-c3ccccn3)cc21` [Compound CE1, 2-(pyridin-2-yl)-6,7-dihydro-2H-pyrazolo[4,3-c]pyridin-4(5H)-one, reference compound], for which the mortality at 200 ppm is less than 0% in test [1] (setting [4]) and 0 to 80% in test [2] (setting [4]).
The like results for `CSCN1CCc2nn(-c3ccncc3)cc2C1=O` [Compound CE2, 5-(methylsulfanylmethyl)-2-(4-pyridyl)-6,7-dihydropyrazolo[4,3-c]pyridin-4-one, reference compound] were, in that order, 0 to 80% and 0 to 80%.
For `CSCN1CCc2nn(-c3ccccn3)cc2C1=O` [Compound CE3, 5-(Methylsulfanylmethyl)-2-(2-pyridyl)-6,7-dihydropyrazolo[4,3-c]pyridin-4-one, reference compound] the same measures were less than 0% and less than 0%.
For `O=C1c2cn(-c3ccccn3)nc2CCN1c1cccc(OC(F)(F)F)c1` [Compound CE4, 2-(2-Pyridyl)-5-[3-(trifluoromethoxy)phenyl]-6,7-dihydropyrazolo[4,3-c]pyridin-4-one, reference compound] the same measures were less than 0% and less than 0%.
As to `O=C1c2cn(-c3ccccn3)nc2CCN1c1cccc(C(F)(F)F)n1` [Compound CE5, reference compound], the mortality at 200 ppm in test [1] (setting [4]) and in test [2] (setting [4]) was less than 0% throughout.
With `O=C1c2cn(-c3ccccn3)nc2CCN1c1cc(C(F)(F)F)ccn1` [Compound CE7, 2-(2-Pyridyl)-5-[4-(trifluoromethyl)-2-pyridyl]-6,7-dihydropyrazolo[4,3-c]pyridin-4-one, reference compound], the mortality at 200 ppm in test [1] (setting [4]) is 0 to 80%; in test [2] (setting [4]), less than 0%.
Regarding `O=C1c2cn(-c3cccnc3)nc2CCN1CC1CC1` [Compound F1, 5-(cyclopropylmethyl)-2-(pyridin-3-yl)-6,7-dihydro-2H-pyrazolo[4,3-c]pyridin-4(5H)-one], the mortality at 200 ppm in test [1] (setting [3]) and in test [2] (setting [3]) was 80 to 100% throughout.
As to `O=C1NCCc2nn(-c3cccnc3)cc21` [Compound F2, 2-(pyridin-3-yl)-6,7-dihydro-2H-pyrazolo[4,3-c]pyridin-4(5H)-one], the mortality at 200 ppm in test [1] (setting [3]) lay in the range of 80 to 100%; in test [2] (setting [3]), 0 to 80%.
For `O=C1c2cn(-c3cccnc3)nc2CCN1Cc1ccc(F)cc1` [Compound F3, 5-(4-fluorobenzyl)-2-(pyridin-3-yl)-6,7-dihydro-2H-pyrazolo[4,3-c]pyridin-4(5H)-one], in test [2] (setting [3]), the mortality at 200 ppm lay in the range of 0 to 80%.
As to `O=C(CN1CCc2nn(-c3cccnc3)cc2C1=O)c1cccc(C(F)(F)F)c1` [Compound P20, 5-(2-oxo-2-(3-(trifluoromethyl)phenyl)ethyl)-2-(pyridin-3-yl)-2,5,6,7-tetrahydro-4H-pyrazolo[4,3-c]pyridin-4-one], in test [1] (setting [3]), the mortality at 200 ppm lay in the range of 80 to 100%.
On the same count and under the same terms, in the case of `O=C(CN1CCc2nn(-c3cccnc3)cc2C1=O)c1ccc(C(F)(F)F)cc1` [Compound P21, 5-(2-oxo-2-(4-(trifluoromethyl)phenyl)ethyl)-2-(pyridin-3-yl)-2,5,6,7-tetrahydro-4H-pyrazolo[4,3-c]pyridin-4-one] it was 80 to 100%.

The values are drawn from patent US9504251B2, “Pesticidal compositions and related methods” (Dow AgroSciences LLC, priority 2014, dated 2016).
